From patent EP3696177A1, “HETEROCYCLIC COMPOUNDS FOR THE CONTROL OF INVERTEBRATE PESTS” (BASF SE, priority 2019, dated 2020)

Key:
Type in all cases: in vivo
Aphis craccivora = assay: Cowpea aphid (Aphis craccivora) spray test on potted cowpea plants; conditions: aphids of various stages, after 72 hours, read-out: mortality in comparison with untreated controls
Description: The active compound is dissolved at the desired concentration in a mixture of 1:1 (vol: vol) distilled water: acetone. Surfactant (Kinetic) is added at a rate of 0.01% (vol/vol). The test solution is prepared at the day of use.
Potted cowpea plants are colonized with approximately 30 - 50 aphids of various stages by man-ually transferring aphid-infested leaf clippings 24 hours before application. Plants are sprayed with the test solutions using a DeVilbiss® hand atomizer at 20- 30 psi (≈ 1.38 to 2.07 bar) after the pest population has been checked. Treated plants are maintained on light carts at about 25- 26°C. Estimate percent mortality is assessed after 72 hours.

Aedes aegypti = assay: whole plant or invertebrate; conditions: 48 h, A. aegypti larvae, incubated 2 days, read-out: mortality in comparison with untreated controls (larval mortality)
Description: For evaluating control of yellow fever mosquito (Aedes aegypti) the test unit consisted of 96-well-microtiter plates containing 200µl of tap water per well and 5-15 freshly hatched A. aegypti larvae.
The active compounds were formulated using a solution containing 75% (v/v) water and 25% (v/v) DMSO. Different concentrations of formulated compounds or mixtures were sprayed onto the insect diet at 2.5µl, using a custom built micro atomizer, at two replications.
After application, microtiter plates were incubated at 28 + 1°C, 80 + 5 % RH for 2 days. Larval mortality was then visually assessed.

Anthonomus grandis = assay: Boll weevil (Anthonomus grandis) insect diet microtiter plate test; conditions: 120 h, read-out: mortality in comparison with untreated controls (egg and larval mortality)
Description: For evaluating control of boll weevil (Anthonomus grandis) the test unit consisted of 96-well-microtiter plates containing an insect diet and 5-10 A. grandis eggs.
The compounds were formulated using a solution containing 75% v/v water and 25% v/v DMSO. Different concentrations of formulated compounds were sprayed onto the insect diet at 5 µl, using a custom built micro atomizer, at two replications.
After application, microtiter plates were incubated at about 25 + 1°C and about 75 + 5 % relative humidity for 5 days. Egg and larval mortality was then visually assessed.

Caenorhabditis elegans = Caenorhabditis elegans liquid diet microtiter plate test; conditions: 96 h, read-out: mortality in comparison with untreated controls (nematode motility (mortality))
Description: For evaluating control of Caenorhabditis elegans through contact or systemic means the test unit consisted of 96-well-microtiter plates containing a liquid diet.
The compounds or mixtures were formulated using a solution containing 75% water and 25% DMSO. Different concentrations of formulated compounds were sprayed into the microtiter plate wells at 5µl per well, using a custom built micro atomizer, at two replications. Mixed instar 60-100 C. elegans were transferred into the micro-titer plate wells. After application, the nematodes were incubated at 18 + 1°C, 70 + 5 % RH for 4 days. Nematode motility (mortality) was then visually assessed.

Nephotettix virescens = assay: Rice green leafhopper (Nephotettix virescens) spray test on rice seedlings; conditions: adults, after 72 hours, read-out: mortality in comparison with untreated controls
Description: Four to five-week old rice seedlings with cut upper leaf portion are cleaned and washed 24 hours before spraying. The active compounds are formulated in 1:1 acetone:water (vol:vol), and 0.01% vol/vol surfactant (Kinetic) is added. Potted rice seedlings are sprayed with 5-6 ml test solution, air dried, covered with Mylar cages and inoculated with 10 adults. Treated rice plants are kept at about 28-29°C and relative humidity of about 50-60%. Percent mortality is recorded after 72 hours.

Plutella xylostella = assay: Diamond back moth (Plutella xylostella) cabbage leaf disc dip test; conditions: foliar, 72 h, read-out: mortality in comparison with untreated controls
Description: The active compound is dissolved at the desired concentration in a mixture of 1:1 (vol:vol) distilled water: acetone. Surfactant (Kinetic) is added at a rate of 0.01% (vol/vol). The test solution is pre-pared at the day of use.
Cabbage leaf discs (60mm in diameter) are dipped in test solution and air-dried. Treated leaves are placed in petri dishes lined with moistened filter paper and inoculated with ten 3rd instar larvae. Mortality is recorded 72 hours after treatment. Feeding damage is also recorded using a scale of 0-100%.

Heliothis virescens = assay: Tobacco budworm (Heliothis virescens) insect diet microtiter plate test; conditions: 120 h, read-out: mortality in comparison with untreated controls (egg and larval mortality)
Description: For evaluating control of tobacco budworm (Heliothis virescens) the test unit consisted of 96-well-microtiter plates containing an insect diet and 15-25 H. virescens eggs.
The compounds were formulated using a solution containing 75% v/v water and 25% v/v DMSO. Different concentrations of formulated compounds were sprayed onto the insect diet at 10 µl, us-ing a custom built micro atomizer, at two replications.
After application, microtiter plates were incubated at about 28 + 1°C and about 80 + 5 % relative humidity for 5 days. Egg and larval mortality was then visually assessed.

Tetranychus kanzawai = assay: Red spider mite (Tetranychus kanzawai) spray test on cowpea beans; conditions: topical, 72 h, read-out: mortality in comparison with untreated controls
Description: The active compound is dissolved at the desired concentration in a mixture of 1:1 (vol:vol) distilled water: acetone. Add surfactant (Kinetic) is added at a rate of 0.01% (vol/vol). The test solution is prepared at the day of use.
Potted cowpea beans of 4-5 days of age are cleaned with tap water and sprayed with 1-2 ml of the test solution using air driven DeVilbiss® hand atomizer at 20- 30 psi (≈ 1,38 to 2,07 bar). The treated plants are allowed to air dry and afterwards inoculated with 30 or more mites by clipping a cassava leaf section from rearing population. Treated plants are placed inside a holding room at about 25-26°C and about 65-70% relative humidity. Estimate percent mortality is assessed 72 hours after treatment.

Nezara viridula = assay: Green soldier stink bug (Nezara viridula) soybean pod spray test; conditions: 120 h, late 3rd instar N. viridula, after 5 days, read-out: mortality in comparison with untreated controls
Description: The active compound is dissolved at the desired concentration in a mixture of 1:1 (vol:vol) distilled water: aceteone. Surfactant (Kinetic) is added at a rate of 0.01% (vol/vol).The test solution is prepared at the day of use.
Soybean pods are placed in 90 x 50 mm glass Petri dishes lined with moistened filter paper and inoculated with ten late 3rd instar N. viridula. Using a hand atomizer, an approximately 2 ml solution is sprayed into each Petri dish. Treated set-up is kept at about 25-26°C and relative humidity of about 65-70%. Percent mortality is recorded after 5 days.

Myzus persicae = assay: Green peach aphid (Myzus persicae) artificial diet/membrane systemic test; conditions: 72 h, read-out: mortality in comparison with untreated controls
From the text: For evaluating control of green peach aphid (Myzus persicae) through systemic means the test unit consisted of 96-well-microtiter plates containing liquid artificial diet under an artificial membrane.
The compounds were formulated using a solution containing 75% v/v water and 25% v/v DMSO. Different concentrations of formulated compounds were pipetted into the aphid diet, using a cus-tom built pipetter, at two replications.
After application, 5 - 8 adult aphids were placed on the artificial membrane inside the microtiter plate wells. The aphids were then allowed to suck on the treated aphid diet and incubated at about 23 + 1°C and about 50 + 5 % relative humidity for 3 days. Aphid mortality and fecundity was then visually assessed.

Megoura viciae = assay: Vetch aphid (Megoura viciae) broad bean leaf disk test; conditions: foliar, 120 h, read-out: mortality in comparison with untreated controls
Description: For evaluating control of vetch aphid (Megoura viciae) through contact or systemic means the test unit consisted of 24-well-microtiter plates containing broad bean leaf disks.
The compounds were formulated using a solution containing 75% v/v water and 25% v/v DMSO. Different concentrations of formulated compounds were sprayed onto the leaf disks at 2.5 µl, us-ing a custom built micro atomizer, at two replications.
After application, the leaf disks were air-dried and 5 - 8 adult aphids placed on the leaf disks in-side the microtiter plate wells. The aphids were then allowed to suck on the treated leaf disks and incubated at about 23 + 1°C and about 50 + 5 % relative humidity for 5 days. Aphid mortality and fecundity was then visually assessed.

dichromothrips corbetti = assay: Orchid thrips floral-immersion test; conditions: 72 h, read-out: mortality in comparison with untreated controls
Description: Dichromothrips corbetti adults used for bioassay are obtained from a colony maintained continu-ously under laboratory conditions. For testing purposes, the test compound is diluted in a 1:1 mix-ture of acetone:water (vol:vol), plus Kinetic at a rate of 0.01% v/v.
Thrips potency of each compound is evaluated by using a floral-immersion technique. Each orchid petal is dipped into treatment solution and allowed to dry in Petri dishes. Treated petals are placed into individual re-sealable plastic along with about 20 adult thrips. All test arenas are held under dark condition and a temperature of about 28°C for duration of the assay. The percent mor-tality is recorded 72 hours after treatment.

CCN1C(=O)SC(NC(=O)c2ccc(C3=NOC(c4cc(Cl)c(F)c(Cl)c4)(C(F)(F)F)C3)cc2Cl)C1=O (stereo not drawn) [Compound I-1-7]
> 75%: mortality at 300 ppm (Aphis craccivora) | mortality at 2500 ppm (Aedes aegypti) | mortality at 2500 ppm (Anthonomus grandis) | mortality at 2500 ppm (Caenorhabditis elegans) | mortality at 300 ppm (Nephotettix virescens) | mortality at 300 ppm (Plutella xylostella) | mortality at 2500 ppm (Heliothis virescens) | mortality at 300 ppm (Tetranychus kanzawai) | mortality at 300 ppm (Nezara viridula) | mortality at 2500 ppm (Myzus persicae) | mortality at 2500 ppm (Megoura viciae) | mortality at 300 ppm (dichromothrips corbetti)

Cc1cc(C2=NOC(c3cc(Cl)cc(Cl)c3)(C(F)(F)F)C2)ccc1C(=O)NC1SC(=O)N(C(C)C)C1=O (stereo not drawn) [Compound I-1-6]
> 75%: mortality at 300 ppm (Aphis craccivora) | mortality at 2500 ppm (Aedes aegypti) | mortality at 2500 ppm (Anthonomus grandis) | mortality at 300 ppm (Nephotettix virescens) | mortality at 300 ppm (Plutella xylostella) | mortality at 2500 ppm (Heliothis virescens) | mortality at 300 ppm (Nezara viridula) | mortality at 2500 ppm (Myzus persicae) | mortality at 2500 ppm (Megoura viciae) | mortality at 300 ppm (dichromothrips corbetti)

CN1C(=O)SC(NC(=O)c2ccc(C3=NOC(c4cc(Cl)c(F)c(Cl)c4)(C(F)(F)F)C3)c3c2CCC3)C1=O (stereo not drawn) [Compound I-1-9]
> 75%: mortality at 300 ppm (Aphis craccivora) | mortality at 2500 ppm (Aedes aegypti) | mortality at 2500 ppm (Anthonomus grandis) | mortality at 2500 ppm (Caenorhabditis elegans) | mortality at 300 ppm (Nephotettix virescens) | mortality at 300 ppm (Plutella xylostella) | mortality at 2500 ppm (Heliothis virescens) | mortality at 300 ppm (Tetranychus kanzawai) | mortality at 300 ppm (Nezara viridula) | mortality at 2500 ppm (Myzus persicae) | mortality at 2500 ppm (Megoura viciae) | mortality at 300 ppm (dichromothrips corbetti)

Cc1cc(C2=NOC(c3cc(Cl)cc(Cl)c3)(C(F)(F)F)C2)ccc1C(=O)NC1SC(=O)N(C)C1=O (stereo not drawn) [Compound I-1-4, 4-[5-(3,5-dichlorophenyl)-5-(trifluoromethyl)-4H-isoxazol-3-yl]-2-methyl-N-(3-methyl-2,4-dioxo-thiazolidin-5-yl)benzamide]
> 75%: mortality at 2500 ppm (Aedes aegypti) | mortality at 2500 ppm (Anthonomus grandis) | mortality at 300 ppm (Nephotettix virescens) | mortality at 300 ppm (Plutella xylostella) | mortality at 2500 ppm (Heliothis virescens) | mortality at 300 ppm (Tetranychus kanzawai) | mortality at 300 ppm (Nezara viridula) | mortality at 2500 ppm (Myzus persicae) | mortality at 2500 ppm (Megoura viciae) | mortality at 300 ppm (dichromothrips corbetti)

CCN1C(=O)SC(NC(=O)c2ccc(C3=NOC(c4cc(Cl)cc(Cl)c4)(C(F)(F)F)C3)cc2C)C1=O (stereo not drawn) [Compound I-1-5]
> 75%: mortality at 300 ppm (Aphis craccivora) | mortality at 2500 ppm (Aedes aegypti) | mortality at 2500 ppm (Anthonomus grandis) | mortality at 300 ppm (Nephotettix virescens) | mortality at 300 ppm (Plutella xylostella) | mortality at 2500 ppm (Heliothis virescens) | mortality at 300 ppm (Tetranychus kanzawai) | mortality at 300 ppm (Nezara viridula) | mortality at 2500 ppm (Myzus persicae) | mortality at 2500 ppm (Megoura viciae) | mortality at 300 ppm (dichromothrips corbetti)

CN1COC(CNC(=O)c2ccc(C3=NOC(c4cc(Cl)cc(C(F)(F)F)c4)(C(F)(F)F)C3)c3c2CCC3)C1=O (stereo not drawn) [Compound I-3-3]
> 75%: mortality at 300 ppm (Aphis craccivora) | mortality at 2500 ppm (Aedes aegypti) | mortality at 2500 ppm (Anthonomus grandis) | mortality at 300 ppm (Nephotettix virescens) | mortality at 300 ppm (Plutella xylostella) | mortality at 2500 ppm (Heliothis virescens) | mortality at 300 ppm (Tetranychus kanzawai) | mortality at 300 ppm (Nezara viridula) | mortality at 2500 ppm (Myzus persicae) | mortality at 2500 ppm (Megoura viciae) | mortality at 300 ppm (dichromothrips corbetti)

Cc1cc(C2=NOC(c3cc(Cl)cc(Cl)c3)(C(F)(F)F)C2)ccc1C(=O)NCC1OCN(C)C1=O (stereo not drawn) [Compound I-3-11]
> 75%: mortality at 300 ppm (Aphis craccivora) | mortality at 2500 ppm (Aedes aegypti) | mortality at 2500 ppm (Anthonomus grandis) | mortality at 2500 ppm (Caenorhabditis elegans) | mortality at 300 ppm (Plutella xylostella) | mortality at 2500 ppm (Heliothis virescens) | mortality at 300 ppm (Tetranychus kanzawai) | mortality at 2500 ppm (Myzus persicae) | mortality at 2500 ppm (Megoura viciae) | mortality at 300 ppm (dichromothrips corbetti)

CC(C)N1C(=O)SC(NC(=O)c2ccc(C3=NOC(c4cc(Cl)cc(Cl)c4)(C(F)(F)F)C3)cc2Cl)C1=O (stereo not drawn) [Compound I-1-3]
> 75%: mortality at 2500 ppm (Aedes aegypti) | mortality at 2500 ppm (Anthonomus grandis) | mortality at 2500 ppm (Caenorhabditis elegans) | mortality at 300 ppm (Plutella xylostella) | mortality at 2500 ppm (Heliothis virescens) | mortality at 300 ppm (Tetranychus kanzawai) | mortality at 300 ppm (Nezara viridula) | mortality at 2500 ppm (Myzus persicae) | mortality at 2500 ppm (Megoura viciae) | mortality at 300 ppm (dichromothrips corbetti)

CN1C(=O)SC(NC(=O)c2ccc(C3=NOC(c4cc(Cl)cc(C(F)(F)F)c4)(C(F)(F)F)C3)c3c2CCC3)C1=O (stereo not drawn) [Compound I-1-8]
> 75%: mortality at 2500 ppm (Aedes aegypti) | mortality at 2500 ppm (Anthonomus grandis) | mortality at 300 ppm (Nephotettix virescens) | mortality at 300 ppm (Plutella xylostella) | mortality at 2500 ppm (Heliothis virescens) | mortality at 300 ppm (Tetranychus kanzawai) | mortality at 300 ppm (Nezara viridula) | mortality at 2500 ppm (Myzus persicae) | mortality at 2500 ppm (Megoura viciae) | mortality at 300 ppm (dichromothrips corbetti)
